The target in the assay is T1, Aurora2 (Aurora-A) (Homo sapiens, UniProt O14965).
T1 construct: Aurora-A: the full length recombinant protein including an N-terminal poly-histidine tail has been expressed in E. coli; poly-histidine (N); made in house; host or cells: E. coli
T1 sequence (O14965 1-403): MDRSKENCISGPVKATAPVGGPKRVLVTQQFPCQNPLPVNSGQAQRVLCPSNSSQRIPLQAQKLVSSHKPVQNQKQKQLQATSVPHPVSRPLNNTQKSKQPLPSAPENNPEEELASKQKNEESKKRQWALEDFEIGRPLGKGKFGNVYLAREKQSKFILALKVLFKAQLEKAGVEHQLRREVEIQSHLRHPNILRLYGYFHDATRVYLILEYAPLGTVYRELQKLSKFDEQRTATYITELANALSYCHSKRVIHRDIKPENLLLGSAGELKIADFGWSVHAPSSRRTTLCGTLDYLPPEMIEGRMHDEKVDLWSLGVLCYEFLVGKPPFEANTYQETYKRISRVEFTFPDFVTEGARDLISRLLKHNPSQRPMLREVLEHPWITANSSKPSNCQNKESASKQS
The assay can be described thus: Aurora 2 (Aurora A) kinase radioactivity scintillation assay using nickel chelate Flash plates. To be noted: 10 nM Aurora-A, 500 nM NuMA substrate, 1 μM ATP with [33P] ATP, 10 mM MgCl2, 30 minutes, 37° C. The class given is biochemical. The protocol:
Aurora 1 and 2 (Respectively. Aurora B and A)
The inhibitory effect of compounds with respect to the Aurora 1 and 2 kinases is determined with a radioactivity scintillation assay using nickel chelate.
The kinase activity of Aurora is measured by the phosphorylation of NuMA-histidine substrate in the presence of radiolabelled ATP ([^33P] ATP) using 96 well Flash plates where the nickel-chelate is linked to the surface of the microplate. The amount of ^33P incorporated to the substrate NuMA is proportional to the aurora activity.
The Flash plates used are nickel-chelate 96 well plates (Perkin Elmer, model SMP107).
The products to be evaluated are incubated in a 100 μl reaction volume per well in the presence of 10 nM of Aurora-B or Aurora-A, 500 nM of NuMA substrate in the following buffer: 50 mM of NaCl, 5 mM MgCl2, (Aurora-B) or 10 mM MgCl2 (Aurora-A) and 1 mM of DTT at 37° C.
80 μL of enzyme/substrate incubation buffer is distributed in each well, followed by 10 μL of solution of compound to be measured with various concentrations. The reaction is started by adding 1 μM of ATP (final concentration) containing 0.2 μCi of [^33P] ATP (10 μL). After 30 minutes of incubation the reaction is stopped by removal of the reaction mixture and each well is washed twice with 300 μl of buffer Tris/HCl. The radioactivity is measured in each well using a Packard Top count scintillation counter instrument.
The enzymatic activity is expressed as counts per minute obtained in 30 minutes after subtraction of the background noise (reaction medium without enzyme). The measurement is expressed as percentage of inhibition of Aurora activity versus the control. To generate IC50 values, compounds of the invention are tested at different concentration and the percentage of inhibition are plotted as function of compound concentration, IC50s are calculated using the Xlfit 4 curve fitting software.

One may read the IC50 as the concentration needed to halve the response being measured. With `Cc1cc(C2C3=C(CNCC3=O)Nc3n[nH]cc32)ccc1O` (centres unmarked) [Example 1, 4-(4-Hydroxy-3-methyl-phenyl)-2,4,6,7,8,9-hexahydro-pyrazolo[3,4-b]-1,7-naphthyridin-5-one; compound with trifluoro-acetic acid], the IC50 is 7450 nM.

On to `CC(C)(C)c1ccc(Oc2cccc(C3C4=C(CNCC4=O)Nc4n[nH]cc43)c2)cc1` (centres unmarked) [Example 8, 4-[3-(4-tert-Butyl-phenoxy)-phenyl]-2,4,6,7,8,9-hexahydro-pyrazolo[3,4-b]-1,7-naphthyridin-5-one; compound with trifluoro-acetic acid], for which the IC50 came out at 696 nM.

As to `Cc1ccc(Oc2cccc(C3C4=C(CNCC4=O)Nc4n[nH]cc43)c2)cc1` (centres unmarked) [Example 11, 4-(3-p-Tolyloxy-phenyl)-2,4,6,7,8,9-hexahydro-pyrazolo[3,4-b]-1,7-naphthyridin-5-one; compound with trifluoro-acetic acid], the half-inhibitory concentration (IC50) worked out at 1130 nM.

On to `O=C1CNCC2=C1C(c1ccc(-c3ccc(Cl)cc3)o1)c1c[nH]nc1N2` (centres unmarked) [Example 16, 4-[5-(4-Chloro-phenyl)-furan-2-yl]-2,4,6,7,8,9-hexahydro-pyrazolo[3,4-b]-1,7-naphthyridin-5-one; compound with trifluoro-acetic acid], for which the 50% inhibitory concentration (IC50) was determined as 1080 nM.

On to `O=C1CNCC2=C1C(c1ccc(-c3ccccc3C(F)(F)F)o1)c1c[nH]nc1N2` (centres unmarked) [Example 17, 4-[5-(2-trifluoromethyl-phenyl)-furan-2-yl]-2,4,6,7,8,9-hexahydro-pyrazolo[3,4-b]-1,7-naphthyridin-5-one; compound with trifluoro-acetic acid], for which the IC50 turned out to be 888 nM.

With `O=C1CNCC2=C1C(c1ccc(-c3cccc(C(F)(F)F)c3)o1)c1c[nH]nc1N2` (centres unmarked) [Example 18, 4-[5-(3-trifluoromethyl-phenyl)-furan-2-yl]-2,4,6,7,8,9-hexahydro-pyrazolo[3,4-b]-1,7-naphthyridin-5-one; compound with trifluoro-acetic acid], the IC50 turned out to be 2150 nM.

As for `O=C1CNCC2=C1C(c1ccc(COc3ccc(Cl)c(Cl)c3)o1)c1c[nH]nc1N2` (centres unmarked) [Example 19, 4-[5-(3,4-Dichloro-phenoxymethyl)-furan-2-yl]-2,4,6,7,8,9-hexahydro-pyrazolo[3,4-b]-1,7-naphthyridin-5-one; compound with trifluoro-acetic acid], the half-maximal inhibitory concentration (IC50) was 8390 nM.

Take `O=C1CCCC2=C1C(c1cccc(Oc3ccc(Cl)cc3)c1)c1c[nH]nc1N2` (centres unmarked) [Example 22, 4-[3-(4-Chloro-phenoxy)-phenyl]-2,4,6,7,8,9-hexahydro-pyrazolo[3,4-b]quinolin-5-one; compound with trifluoro-acetic acid]: the half-inhibitory concentration (IC50) turned out to be 2320 nM.

Regarding `O=C1CCCC2=C1C(c1ccc(-c3cccc(Cl)c3)o1)c1c[nH]nc1N2` (centres unmarked) [Example 23], the half-inhibitory concentration (IC50) is 2410 nM.

In the case of `O=C1CCCC2=C1C(c1ccc(COc3ccc(Cl)c(Cl)c3)o1)c1c[nH]nc1N2` (centres unmarked) [Example 24, 4-[5-(3,4-Dichloro-phenoxymethyl)-furan-2-yl]-2,4,6,7,8,9-hexahydro-pyrazolo[3,4-b]quinolin-5-one; compound with trifluoro-acetic acid], the IC50 was found to be 291 nM.

Regarding `O=C1CCCC2=C1C(c1ccc(-c3cccc(C(F)(F)F)c3)o1)c1c[nH]nc1N2` (centres unmarked) [Example 25, 4-[5-(3-Trifluoromethyl-phenyl)-furan-2-yl]-2,4,6,7,8,9-hexahydro-pyrazolo[3,4-b]quinolin-5-one; compound with trifluoro-acetic acid], the half-maximal inhibitory concentration (IC50) came out at 3070 nM.

Regarding `O=C1CCCC2=C1C(c1ccc(-c3ccccc3C(F)(F)F)o1)c1c[nH]nc1N2` (centres unmarked) [Example 26, 4-[5-(2-Trifluoromethyl-phenyl)-furan-2-yl]-2,4,6,7,8,9-hexahydro-pyrazolo[3,4-b]quinolin-5-one; compound with trifluoro-acetic acid], the IC50 was determined as 1030 nM.

Take `O=C1CCCC2=C1C(c1ccc(-c3ccc(Cl)cc3)o1)c1c[nH]nc1N2` (centres unmarked) [Example 27, 4-[5-(4-Chloro-phenyl)-furan-2-yl]-2,4,6,7,8,9-hexahydro-pyrazolo[3,4-b]quinolin-5-one; compound with trifluoro-acetic acid]: the IC50 was found to be 4920 nM.

`Cn1c2c(c(=O)n(C)c1=O)C(c1cccc(Oc3ccc(Cl)cc3)c1)c1c[nH]nc1N2` (centres unmarked) [Example 43, 4-[3-(4-Chloro-phenoxy)-phenyl]-6,8-dimethyl-2,4,8,9-tetrahydro-1,2,6,8,9-pentaaza-cyclopenta[b]naphthalene-5,7-dione; compound with trifluoro-acetic acid]: the IC50 came out at 9700 nM.

Consider `O=C1CN(CC(O)CN2CCOCC2)CC2=C1C(c1cccc(Oc3ccc(Cl)cc3)c1)c1c[nH]nc1N2` (centres unmarked) [Example 50, 4-[3-(4-Chloro-phenoxy)-phenyl]-7-(2-hydroxy-3-morpholin-4-yl-propyl)-2,4,6,7,8,9-hexahydro-pyrazolo[3,4-b]-1,7-naphthyridin-5-one; compound with trifluoro-acetic acid], for which the 50% inhibitory concentration (IC50) turned out to be 227 nM.

For the compound `Cc1noc(C)c1C(=O)N1CC(=O)C2=C(C1)Nc1n[nH]cc1C2c1cccc(Oc2ccc(Cl)cc2)c1` (centres unmarked) [Example 53, 4-[3-(4-Chloro-phenoxy)-phenyl]-7-(3,5-dimethyl-isoxazole-4-carbonyl)-2,4,6,7,8,9-hexahydro-pyrazolo[3,4-b]-1,7-naphthyridin-5-one; compound with trifluoro-acetic acid], the IC50 was determined as 7370 nM.

`O=C1CN(C(=O)c2ccno2)CC2=C1C(c1cccc(Oc3ccc(Cl)cc3)c1)c1c[nH]nc1N2` (centres unmarked) [Example 54, 4-[3-(4-Chloro-phenoxy)-phenyl]-7-(isoxazole-5-carbonyl)-2,4,6,7,8,9-hexahydro-pyrazolo[3,4-b]-1,7-naphthyridin-5-one; compound with trifluoro-acetic acid]: the IC50 was 6100 nM.

With `Cc1nnsc1C(=O)N1CC(=O)C2=C(C1)Nc1n[nH]cc1C2c1cccc(Oc2ccc(Cl)cc2)c1` (centres unmarked) [Example 55, 4-[3-(4-Chloro-phenoxy)-phenyl]-7-(4-methyl-[1,2,3]thiadiazole-5-carbonyl)-2,4,6,7,8,9-hexahydro-pyrazolo[3,4-b]-1,7-naphthyridin-5-one; compound with trifluoro-acetic acid], the half-inhibitory concentration (IC50) is 7200 nM.

Turning to `O=C1CNCC2=C1C(c1cccc(C(=O)NCc3ccc(OC(F)(F)F)cc3)c1)c1c[nH]nc1N2` (centres unmarked) [Example 60, 3-(5-Oxo-2,4,6,7,8,9-hexahydro-pyrazolo[3,4b]-1,7-naphthyridin-4-yl)-N-(4-trifluoromethoxy-benzyl)-benzamide; compound with trifluoro-acetic acid], the half-maximal inhibitory concentration (IC50) is 6500 nM.

In the case of `O=C1CNCC2=C1C(c1cccc(C(=O)Nc3ccc(OC(F)(F)F)cc3)c1)c1c[nH]nc1N2` (centres unmarked) [Example 63, 3-(5-Oxo-2,4,6,7,8,9-hexahydro-pyrazolo[3,4b]-1,7-naphthyridin-4-yl)-N-(4-trifluoromethoxy-phenyl)-benzamide; compound with trifluoro-acetic acid], the IC50 is 3300 nM.

Regarding `O=C1CNCC2=C1C(c1cccc(C(=O)Nc3cccc(OC(F)(F)F)c3)c1)c1c[nH]nc1N2` (centres unmarked) [Example 64, 3-(5-Oxo-2,4,6,7,8,9-hexahydro-pyrazolo[3,4b]-1,7-naphthyridin-4-yl)-N-(3-trifluoromethoxy-phenyl)-benzamide; compound with trifluoro-acetic acid], the IC50 is 4100 nM.

With `O=C1CNCC2=C1C(c1cccc(NC(=O)c3ccc(Cl)cc3)c1)c1c[nH]nc1N2` (centres unmarked) [Example 65, 4-Chloro-N-[3-(5-Oxo-2,4,6,7,8,9-hexahydro-pyrazolo[3,4b]-1,7-naphthyridin-4-yl)-phenyl]-benzamide; compound with trifluoro-acetic acid], the 50% inhibitory concentration (IC50) stood at 630 nM.

Consider `O=C(Nc1ccc(Cl)cc1)Nc1cccc(C2C3=C(CNCC3=O)Nc3n[nH]cc32)c1` (centres unmarked) [Example 67, 1-(4-Chloro-phenyl)-3-[3-(5-Oxo-2,4,6,7,8,9-hexahydro-pyrazolo[3,4b]-1,7-naphthyridin-4-yl)-phenyl]-urea; compound with trifluoro-acetic acid], for which the IC50 was determined as 2000 nM.

These data come from patent publication US8163768B2, “1,4-dihydropyridine-fused heterocycles, process for preparing the same, use and compositions containing them” (Aventis Pharma S.A.., priority 2005, dated 2012).
